Numbered stars: 1 amine (or outer) side, 2 acyl side, 3 side chain; on linkers, the order of the positions; unused ones are H or OH. Bridge positions count the residues as written; N and C are the ends. Square brackets hold non-standard residues; d marks the D form. Peptide text beside a SMILES is read from it. mXylylene = c1cc(C[*:1])cc(C[*:2])c1
Columns and labels:
Human recombinant FAP = molecular target: T1, Human recombinant FAP (Homo sapiens, UniProt Q12884); test: FRET-based FAP protease activity assay; assay type: biochemical; parameters: purchased R&D systems 3715-SE; settings: pIC50 Category (Activity), recombinant human FAP, FRET substrate, 37° C.
T1 sequence (Q12884 1-760): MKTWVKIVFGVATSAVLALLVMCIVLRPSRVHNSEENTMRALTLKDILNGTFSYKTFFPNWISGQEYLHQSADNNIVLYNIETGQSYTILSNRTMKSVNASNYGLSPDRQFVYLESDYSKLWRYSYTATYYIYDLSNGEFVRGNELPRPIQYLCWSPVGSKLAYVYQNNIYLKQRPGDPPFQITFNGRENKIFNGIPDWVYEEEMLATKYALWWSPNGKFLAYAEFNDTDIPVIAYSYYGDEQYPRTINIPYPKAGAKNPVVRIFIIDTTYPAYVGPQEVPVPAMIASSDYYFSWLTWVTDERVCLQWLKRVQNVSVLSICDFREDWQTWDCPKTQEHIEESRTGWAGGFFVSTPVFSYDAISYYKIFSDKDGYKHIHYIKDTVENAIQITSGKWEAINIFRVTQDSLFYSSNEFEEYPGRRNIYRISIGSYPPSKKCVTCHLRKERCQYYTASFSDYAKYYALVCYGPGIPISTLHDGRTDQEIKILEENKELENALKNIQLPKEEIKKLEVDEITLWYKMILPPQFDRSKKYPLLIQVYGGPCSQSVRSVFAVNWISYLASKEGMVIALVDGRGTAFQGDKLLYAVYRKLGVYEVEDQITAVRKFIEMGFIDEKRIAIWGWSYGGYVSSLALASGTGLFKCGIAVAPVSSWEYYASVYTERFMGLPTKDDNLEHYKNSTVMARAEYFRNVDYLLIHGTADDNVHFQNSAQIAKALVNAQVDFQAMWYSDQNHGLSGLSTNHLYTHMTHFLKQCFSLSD

[1] = molecular target: T2, FAP-expressing human WI-38 fibroblasts (Homo sapiens, UniProt Q12884); test: Competitive FACS binding assay; settings: pIC50 Category (FACS), competition with 3 nM Cy5-labeled compound, WI-38 fibroblasts, 4° C., 1 hour
T2 construct: FAP-expressing human WI-38 fibroblasts (ECACC) were cultured in EMEM; host or cells: WI-38 human fibroblasts
T2 sequence (Q12884 1-760): T1 sequence (Q12884 1-760)
Description: Cells were analyzed in an Attune NxT flow cytometer. […]

Row | IC50 (Human recombinant FAP) [nM] | IC50 [1] [nM] | Structure (SMILES)
1 | < 10 | < 10 | CSCC[C@H](NC(C)=O)C(=O)N[C@H]1CSCc2cccc(c2)CSC[C@@H](C(=O)N[C@@H](CC(=O)O)C(=O)N[C@@H](Cc2c[nH]cn2)C(=O)N[C@@H](Cc2ccccc2)C(=O)N[C@@H](CCCNC(=N)N)C(=O)N[C@@H](C)C(N)=O)NC(=O)[C@H](Cc2ccccc2)NC(=O)[C@H](CCC(=O)O)NC(=O)[C@H]([C@@H](C)O)NC(=O)[C@@H]2CCCN2C(=O)[C@@H]2CCCN2C1=O [3BP-3198, Ac-Met-[Cys(3MeBn)-Pro-Pro-Thr-Glu-Phe-Cys]-Asp-His-Phe-Arg-Ala-NH2] (Ac-MCPPTEFCDHFRA-NH2; linker 2-8 via mXylylene)
2 | < 10 | < 10 | CSCC[C@H](NC(C)=O)C(=O)N[C@H]1CSCc2cccc(c2)CSC[C@@H](C(=O)N[C@@H](CC(=O)O)C(=O)N[C@@H](Cc2c[nH]cn2)C(=O)N[C@@H](Cc2ccccc2)C(=O)N[C@@H](CCCNC(=N)N)C(N)=O)NC(=O)[C@H](Cc2ccccc2)NC(=O)[C@H](CCC(=O)O)NC(=O)[C@H]([C@@H](C)O)NC(=O)[C@@H]2CCCN2C(=O)[C@@H]2CCCN2C1=O [3BP-3200, Ac-Met-[Cys(3MeBn)-Pro-Pro-Thr-Glu-Phe-Cys]-Asp-His-Phe-Arg-NH2] (Ac-MCPPTEFCDHFR-NH2; linker 2-8 via mXylylene)
3 | < 10 | < 10 | CSCC[C@H](NC(C)=O)C(=O)N[C@H]1CSCc2cccc(c2)CSC[C@@H](C(=O)N[C@@H](CC(=O)O)C(=O)N[C@@H](Cc2c[nH]cn2)C(=O)N[C@@H](Cc2ccccc2)C(=O)N[C@@H](CCCNC(=N)N)C(=O)N[C@H](CC(=O)O)C(N)=O)NC(=O)[C@H](Cc2ccccc2)NC(=O)[C@H](CCC(=O)O)NC(=O)[C@H]([C@@H](C)O)NC(=O)[C@@H]2CCCN2C(=O)[C@@H]2CCCN2C1=O [3BP-3213, Ac-Met-[Cys(3MeBn)-Pro-Pro-Thr-Glu-Phe-Cys]-Asp-His-Phe-Arg-asp-NH2] (Ac-MCPPTEFCDHFR[dD]-NH2; linker 2-8 via mXylylene)

More lines, now with the values behind:

Row | Structure (SMILES) | IC50 (Human recombinant FAP) [nM] | IC50 [1] [nM]
4 | CSCC[C@H](NC(C)=O)C(=O)N[C@H]1CSCc2cccc(c2)CSC[C@@H](C(=O)N[C@@H](CC(=O)O)C(=O)N[C@@H](Cc2c[nH]cn2)C(=O)N[C@@H](Cc2ccccc2)C(N)=O)NC(=O)[C@H](Cc2ccccc2)NC(=O)[C@H](CCC(=O)O)NC(=O)[C@H]([C@@H](C)O)NC(=O)[C@@H]2CCCN2C(=O)[C@@H]2CCCN2C1=O [3BP-3199, Ac-Met-[Cys(3MeBn)-Pro-Pro-Thr-Glu-Phe-Cys]-Asp-His-Phe-NH2] (Ac-MCPPTEFCDHF-NH2; linker 2-8 via mXylylene) | 10 to 79.4 | 100 to 794
5 | CSCC[C@H](NC(C)=O)C(=O)N[C@H]1CSCc2cccc(c2)CSC[C@@H](C(=O)N[C@@H](CC(=O)O)C(=O)N[C@@H](Cc2c[nH]cn2)C(=O)N[C@@H](Cc2ccccc2)C(=O)N[C@@H](CCCNC(=N)N)C(=O)N[C@@H](CC(=O)O)C(N)=O)NC(=O)[C@H](Cc2ccccc2)NC(=O)[C@H](CCC(=O)O)NC(=O)[C@H]([C@@H](C)O)NC(=O)[C@@H]2CCCN2C(=O)CNC1=O [3BP-3214, Ac-Met-[Cys(3MeBn)-Gly-Pro-Thr-Glu-Phe-Cys]-Asp-His-Phe-Arg-Asp-NH2] (Ac-MCGPTEFCDHFRD-NH2; linker 2-8 via mXylylene) | < 10 | < 10
6 | CSCC[C@H](NC(C)=O)C(=O)N[C@H]1CSCc2cccc(c2)CSC[C@@H](C(=O)N[C@@H](CC(=O)O)C(=O)N[C@@H](Cc2c[nH]cn2)C(=O)N[C@@H](Cc2ccccc2)C(=O)N[C@@H](CCCNC(=N)N)C(=O)N[C@@H](CC(=O)O)C(N)=O)NC(=O)[C@H](Cc2ccccc2)NC(=O)[C@H](CCC(=O)O)NC(=O)[C@H]([C@@H](C)O)NC(=O)[C@@H]2CCCN2C(=O)[C@@H](C)NC1=O [3BP-3215, Ac-Met-[Cys(3MeBn)-ala-Pro-Thr-Glu-Phe-Cys]-Asp-His-Phe-Arg-Asp-NH2] (Ac-MC[dA]PTEFCDHFRD-NH2; linker 2-8 via mXylylene) | 100 to 794 | 100 to 794

Source: US20220315554A1, “COMPOUNDS COMPRISING A […] LIGAND AND USE THEREOF” (priority 2019, published 2022)
